Assay results published in patent US7338932B2, “Methods of modulating functions of polypeptide GalNAc-transferases and of screening test substances to find agents herefor, pharmaceutical compositions comprising such agents and the use of such agents for preparing medicaments” (Glycozym APS, priority 2000, dated 2008).
Read-outs that look alike come from different tables or passages of the source. Values belong to the compound of their own block, whether it stands above or below them.

Columns and labels:
[1] = target: T1, GalNAc-T2 lectin domain (T2ld) (Homo sapiens, UniProt Q10471); assay: Direct binding ELISA to GalNAc-MUC1 glycopeptide, competitive inhibition, T2ld
T1 construct: made in house; host or cells: High Five insect cells (baculovirus, pAcGP67-A)
T1 sequence (Q10471 408-571): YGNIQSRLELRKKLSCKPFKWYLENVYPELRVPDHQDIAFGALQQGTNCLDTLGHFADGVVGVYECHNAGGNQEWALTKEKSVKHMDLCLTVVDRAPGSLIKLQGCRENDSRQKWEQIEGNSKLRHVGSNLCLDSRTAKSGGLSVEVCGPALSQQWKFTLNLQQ
Description: (§1) Protein biotinylation was made as previously reported^62. The pH of 1 ml purified protein (0.3 mg/ml) in PBS was adjusted to pH 9 with 1 M NaOH and 40 μl N-hydroxy-succinimidobiotin (Sigma) dissolved in DMF (10 mg/ml) was added. The solution was mixed end-over-end for 2 hours at room temperature, and dialyzed three times against PBS and an equal volume of glycerol was added. The biotinylated proteins were stored at −20° C. in 50% glycerol until use.
(§2) Direct binding ELISA assay was developed as follows: Polystyrene microtiter plates (Maxisorb, Nunc, Denmark) were coated with peptides or enzymatically glycosylated glycopeptides in PBS overnight at 4° C. Plates were washed and blocked with 0.1% Tween20 and 0.2% BSA in PBS for 1 h at room temperature, followed by incubation with biotinylated proteins in PBS with 0.05% Tween20 for 2 h at room temperature. After four washes with PBS, plates were incubated with 1:2,000 dilution streptavidin-HRP (Sigma) in PBS for 30 min at room temperature and washed four times with PBS. Development was performed with 0.5 mg/ml o-phenylenediamine and 0.02% H2O2 at room temperature for 15 min, and reaction stopped by adding 100 μl/well of 0.5 N H2SO4. Competitive inhibition assays were done at end-point titers of GalNAc-transferase proteins with one hour preincubations with inhibitor.
(§3) In binding studies using lectins without biotinylation antibodies to the HIS-tag and the T7-tag, or in some experiments antibodies raised to GalNAc-T2 and -T4 enzymes were used to detect binding.

[2] = target: T2, secreted soluble GalNAc-T2 (sT2) (Homo sapiens, UniProt Q10471); assay: Direct binding ELISA to GalNAc-MUC1 glycopeptide, competitive inhibition, sT2
T2 construct: HIS-tagged secreted human GalNAc-T2 and -T4 were prepared from pAC-GP67-T2-sol and pAC-GP67-T4-sol cDNA; 6xHis (N); thrombin cleavage site (N); T7 tag (N); made in house; host or cells: High Five insect cells (baculovirus)
Description: as §1, §2, §3

[3] = target: T3, GalNAc-T4 lectin domain (T4ld) (Homo sapiens, UniProt Q8N4A0); assay: Direct binding ELISA to GalNAc-MUC1 glycopeptide, competitive inhibition, T4ld
T3 construct: made in house; host or cells: High Five insect cells (baculovirus, pAcGP67-A)
Description: as §1, §2, §3

[4] = target: T4, secreted soluble GalNAc-T4 (sT4) (Homo sapiens, UniProt Q8N4A0); assay: Direct binding ELISA to GalNAc-MUC1 glycopeptide, competitive inhibition, sT4; conditions: binding to GalNAc-MUC1 glycopeptide
T4 construct: using the GalNAc-T4-sol construct that encodes residues 32-578 inserted into pT7T3U19; 6xHis (N); thrombin cleavage site (N); T7 tag (N); made in house; host or cells: High Five insect cells (baculovirus)
Description: as §1, §2, §3

[5] = target: Helix Pomatia lectin (HPA) (Helix pomatia, UniProt Q2F1K8); assay: Direct binding ELISA, competitive inhibition, Helix Pomatia lectin control; conditions: read-out: Concentration required for 50% inhibition (IC50), HPA; control plant lectin
Text: Glycopeptides were purified by C-18 reverse phase HPLC. Peptides were custom synthesized by Neosystems (Strasbourg). Biotinylated Helix Pomatia lectin (HPA) was from KemEnTec (Denmark). Anti-MUC1 HMFG2 monoclonal antibody was a generous gift from Joyce Taylor-Papadimitriou. Anti-MUC1 SE5 monoclonal antibody was developed by immunizing Balb/c mice with 60-mer MUC1 tandem repeat peptide glycosylated with 5 moles GalNAc per repeat. Monoclonal antibodies to the lectin domains of human GalNAc-T2 and -T4 were developed as previously described^8, 63.
as §2
Inhibition experiments were used to further define the binding specificity of GalNAc-T2 and -T4 secreted soluble enzymes as well as lectin domains compared to Helix Pomatia lectin (Table VII).

GalNAc-T4 = target: T5, GalNAc-T4 (Homo sapiens, UniProt Q8N4A0); assay: Inhibition of glycosylation dependent (GalNAc-glycopeptide) activity of GalNAc-T4, MALDI-TOF time-course; assay type: biochemical; conditions: […] free sugar
T5 construct: using the GalNAc-T4-sol construct that encodes residues 32-578 inserted into pT7T3U19; made in house; host or cells: High Five insect cells (baculovirus, pAcGP67)
Description: MALDI-TOF time-course in terminal reactions were performed in reactions of 25 μl containing 2.5 nmol acceptor (glyco)peptide, 40 nmol UDP-GalNAc, and 0.4 μg GalNAc-T4. Sampling of reactions (1 μl) were purified by nano-scale reversed-phase chromatography (Poros R3, PerSeptive Biosystem) and applied directly to the probe with matrix (41). The amount of GalNAc-transferase added was adjusted so that the reaction with the appropriate peptide was near completion in six hours. Reactions were incubated at 37° C. in a shaker bath. At times 0, 2 hours, and 16 hours a 1 μl aliquot was taken and purified. Mass spectra were acquired on either Voyager-DE mass spectrometer equipped with delayed extraction (Perseptive Biosystem Inc.). The matrix used was 2,5-dihydroxybenzoic acid (10 mg/ml, Hewlett-Packard) dissolved in a 2:1 mixture of 0.1% trifluoroacetic acid in 30% aqueous acetonitrile (Rathburn Ltd.).
Quantification of purified proteins was done by Coomassie stained SDS-PAGE and titration of immunoreactivity with the monoclonal antibody, UH6(4G2) (8). […] Wild-type GalNAc-T4 and mutant GalNAc-T4, GalNAc-T4^459H, were analysed with unglycosylated peptides (represented by PSGL-1) or GalNAc glycosylated glycopeptides (represented by GalNAc3TAP25V21) in reactions of 25 μl containing 2.5 nmol acceptor (glyco)peptide, 40 nmol UDP-GalNAc, and 0.4 μg GalNAc-T4. Time-course assays were motioned by MALDI-TOF. Sampling of reactions (1 μl) were purified by nano-scale reversed-phase chromatography (Poros R3, PerSeptive Biosystem) and applied directly to the probe with matrix. Evaluation of inhibition of the glycopeptide specificity of wild-type GalNAc-T4 with free sugars was performed to establish if the lectin domain recognized carbohydrate. […] Further, analysis was performed with 10 mM α-D-GalNAc-1-benzyl, αGlcNAc-benzyl, and fully occupied GalNAc-glycopeptide, GalNAc6TAP25, at 5 mM.

[6] = read-out: Concentration required for 50% inhibition (IC50), T2ld
[7] = read-out: Concentration required for 50% inhibition (IC50), sT2
[8] = read-out: Concentration required for 50% inhibition (IC50), T4ld
[9] = read-out: Concentration required for 50% inhibition (IC50), sT4

SMILES: COC1O[C@H](CO)[C@H](O)[C@H](O)[C@H]1O (single isomer, unassigned) [MeβGal]
- IC50 [1]: > 100 mM
- IC50 [2]: > 100 mM
- IC50 [3]: > 100 mM
- IC50 [4]: 40 mM

SMILES: CC(=O)N[C@H]1[C@H](OCc2ccccc2)O[C@H](CO)[C@@H](O)[C@@H]1O [BzlβGlcNAc]
- IC50 [1]: > 100 mM
- IC50 [2]: > 100 mM
- IC50 [3]: > 100 mM
- IC50 [4]: > 100 mM
- IC50 [5]: > 20 mM

SMILES: CO[C@H]1O[C@H](CO)[C@H](O)[C@H](O)[C@H]1O [MeαGal]
- IC50 [1, 6]: > 100 mM
- IC50 [2, 7]: > 100 mM
- IC50 [3, 8]: > 100 mM
- IC50 [4, 9]: 50 mM
- IC50 [5]: > 100 mM

SMILES: CC(=O)N[C@H]1[C@@H](Oc2ccccc2)O[C@H](CO)[C@H](O)[C@@H]1O [PhlαGalNAc]
- IC50 [1, 6]: 15 mM
- IC50 [5]: 1 mM

The next lines start with the values.

- Inhibition of glycosylation dependent specificity of GalNAc-T4 (GalNAc-T4): failed to show significant inhibition
SMILES: C[C@@H]1OC(O)[C@@H](O)[C@H](O)[C@@H]1O (stereo partly drawn) [Fuc]

- Inhibition of glycosylation dependent specificity of GalNAc-T4 (GalNAc-T4): failed to show significant inhibition
SMILES: OC[C@H]1OC(O)[C@H](O)[C@@H](O)[C@H]1O (stereo partly drawn) [Gal]

- Inhibition of glycosylation dependent specificity of GalNAc-T4 (GalNAc-T4): failed to show significant inhibition
- IC50 [1, 6]: > 100 mM
- IC50 [2, 7]: > 100 mM
- IC50 [3, 8]: > 100 mM
- IC50 [4, 9]: > 100 mM
- IC50 [5]: 8 mM
SMILES: CC(=O)N[C@H]1C(O)O[C@H](CO)[C@@H](O)[C@@H]1O (stereo partly drawn) [GlcNAc]
